Assay [1] relates to S. aureus RN450. The assay is described as follows: In Vitro Anti-Bacterial Activity Assay (MIC), gram positive. Type of assay: cell-based. To be noted: Staphylococcus aureus, RN450, 18 h.
In assay [2] the test system is E. coli mL308 225. The assay is described as follows: In Vitro Anti-Bacterial Activity Assay (MIC), gram negative. Type of assay: cell-based. To be noted: Escherichia coli, ML308225, 18 h.
The mark [3] stands for this setting: MIC class, Table 3, read-out: Antibiotic Activity Gram +.
Where [4] appears, read: MIC class, Table 3, read-out: Antibiotic Activity Gram −.
[5] abbreviates: MIC class, Table 3 (Continued), read-out: Gram+ activity.
[6] abbreviates: MIC class, Table 3 (Continued), read-out: Gram− activity.
[7] abbreviates: gram positive bacteria, read-out: Antibiotic Activity Gram + (MIC).
Setting [8] is: gram negative bacteria, read-out: Antibiotic Activity Gram − (MIC).

Molecules are shown by their SMILES. Where two headings read alike, the source gives them in different places.

Take `CN(C)c1cc(CNCC(C)(C)C)c(O)c2c1C[C@H]1C[C@H]3[C@H](N(C)C)C(O)=C(C(N)=O)C(=O)[C@@]3(O)C(O)=C1C2=O` [FD]: the MIC in assay [1] (setting [3]) and in assay [2] (setting [4]) was < 4 µg/mL each time.

`CN(C)c1ccc(-c2cc(N)c(O)c3c2C[C@H]2C[C@H]4[C@@H](N(C)C)C(O)=C(C(N)=O)C(=O)[C@@]4(O)C(O)=C2C3=O)cc1` [ID]: the MIC was < 4 µg/mL in assay [1] (setting [3]) and > 4 µg/mL in assay [2] (setting [4]).

With `COc1ccc(CCc2ccc(O)c3c2C[C@H]2C[C@H]4[C@H](N(C)C)C(O)=C(C(N)=O)C(=O)[C@@]4(O)C(O)=C2C3=O)cc1`, the MIC in assay [1] (setting [5]) and in assay [2] (setting [6]) was < 4 µg/mL each time.

In the case of `CN(CCCC(F)(F)F)Cc1cc(N(C)C)c2c(c1O)C(=O)C1=C(O)[C@]3(O)C(=O)C(C(N)=O)=C(O)[C@@H](N(C)C)[C@@H]3C[C@@H]1C2`, the MIC in assay [1] (setting [7]) and in assay [2] (setting [8]) was < 4 µg/mL each time.

As to `CC(=O)NCc1ccc(O)c2c1C[C@H]1C[C@H]3[C@H](N(C)C)C(O)=C(C(N)=O)C(=O)[C@@]3(O)C(O)=C1C2=O`, the MIC is < 4 µg/mL in assay [1] (setting [7]) and > 4 µg/mL in assay [2] (setting [8]).

For `CN(C)[C@@H]1C(O)=C(C(N)=O)C(=O)[C@@]2(O)C(O)=C3C(=O)c4c(ccc(NC(=O)CCCC(=O)O)c4O)C[C@H]3C[C@@H]12` [HX], the MIC in assay [1] (setting [3]) and in assay [2] (setting [4]) was > 4 µg/mL throughout.

With `CN(C)[C@@H]1C(O)=C(C(N)=O)C(=O)[C@@]2(O)C(O)=C3C(=O)c4c(O)cccc4[C@@](C)(O)[C@H]3C[C@@H]12` [D], the MIC in assay [1] (setting [3]) and in assay [2] (setting [4]) was < 4 µg/mL each time.

With `CN(C)c1cc(-c2cccs2)c(O)c2c1C[C@H]1C[C@H]3[C@H](N(C)C)C(O)=C(C(N)=O)C(=O)[C@@]3(O)C(O)=C1C2=O` [W], the MIC in assay [1] (setting [3]) was < 4 µg/mL; in assay [2] (setting [4]), > 4 µg/mL.

In the case of `COc1cc(-c2ccc(O)c3c2C[C@H]2C[C@H]4[C@H](N(C)C)C(O)=C(C(N)=O)C(=O)[C@@]4(O)C(O)=C2C3=O)cc(OC)c1OC` [GE], the MIC in assay [1] (setting [3]) was < 4 µg/mL; in assay [2] (setting [4]) it was > 4 µg/mL.

Regarding `CN(C)c1cc(NC(=O)NC(=O)c2ccccc2)c(O)c2c1C[C@H]1C[C@H]3[C@H](N(C)C)C(O)=C(C(N)=O)C(=O)[C@@]3(O)C(O)=C1C2=O` [CH], the results for the MIC in assay [1] (setting [3]) and in assay [2] (setting [4]) were < 4 µg/mL and > 4 µg/mL, respectively.

Turning to `CON(C)CC(=O)Nc1ccc(-c2ccc(O)c3c2C[C@H]2C[C@H]4[C@@H](N(C)C)C(O)=C(C(N)=O)C(=O)[C@@]4(O)C(O)=C2C3=O)cc1` [PN], the figures for the MIC in assay [1] (setting [3]) and in assay [2] (setting [4]) were < 4 µg/mL and > 4 µg/mL, respectively.

`CN(C)c1cc(CN)c(O)c2c1C[C@H]1C[C@H]3[C@H](N(C)C)C(O)=C(C(N)=O)C(=O)[C@@]3(O)C(O)=C1C2=O`: the MIC in assay [1] (setting [7]) is < 4 µg/mL; in assay [2] (setting [8]), > 4 µg/mL.

Take `Cc1ccc(/C=C/c2ccc(O)c3c2C[C@H]2C[C@H]4[C@H](N(C)C)C(O)=C(C(N)=O)C(=O)[C@@]4(O)C(O)=C2C3=O)cc1` [drawing 3345]: the MIC in assay [1] (setting [7]) and in assay [2] (setting [8]) was < 4 µg/mL throughout.

In the case of `CCCOc1cccc2c1C(=O)C1=C(O)[C@]3(O)C(=O)C(C(N)=O)=C(O)[C@@H](N(C)C)[C@@H]3C[C@@H]1C2` [drawing 3578], the MIC in assay [1] (setting [7]) and in assay [2] (setting [8]) was > 4 µg/mL in each case.

Regarding `CN(C)[C@@H]1C(O)=C(C(N)=O)C(=O)[C@@]2(O)C(O)=C3C(=O)c4c(O)ccc(C(=O)C(=O)N5CCOCC5)c4C[C@H]3C[C@@H]12`, the MIC in assay [1] (setting [7]) is < 4 µg/mL; in assay [2] (setting [8]), > 4 µg/mL.

As for `COc1ccc(CNCCN(C)C)cc1-c1ccc(O)c2c1C[C@H]1C[C@H]3[C@H](N(C)C)C(O)=C(C(N)=O)C(=O)[C@@]3(O)C(O)=C1C2=O` [GA], the MIC was < 4 µg/mL in assay [1] (setting [3]) and > 4 µg/mL in assay [2] (setting [4]).

Regarding `CN(C)c1cc(NC(=O)Nc2cccc3ccccc23)c(O)c2c1C[C@H]1C[C@H]3[C@H](N(C)C)C(O)=C(C(N)=O)C(=O)[C@@]3(O)C(O)=C1C2=O` [S], the MIC in assay [1] (setting [3]) is < 4 µg/mL; in assay [2] (setting [4]) it was > 4 µg/mL.

In the case of `CN(C)[C@@H]1C(O)=C(C(N)=O)C(=O)[C@@]2(O)C(O)=C3C(=O)c4c(O)ccc(-c5ccc(CNC6CC6)o5)c4C[C@H]3C[C@@H]12`, the MIC in assay [1] (setting [7]) and in assay [2] (setting [8]) was < 4 µg/mL each time.

Regarding `CN(C)[C@@H]1C(O)=C(C(N)=O)C(=O)[C@@]2(O)C(O)=C3C(=O)c4c(O)ccc(C#Cc5ccc(NS(C)(=O)=O)cc5)c4C[C@H]3C[C@@H]12` [BU], the MIC in assay [1] (setting [3]) was < 4 µg/mL; in assay [2] (setting [4]), > 4 µg/mL.

Consider `CCCCCCOC(=O)NCc1cc(N(C)C)c2c(c1O)C(=O)C1=C(O)[C@]3(O)C(=O)C(C(N)=O)=C(O)[C@@H](N(C)C)[C@@H]3C[C@@H]1C2` [FE], for which the MIC was < 4 µg/mL in assay [1] (setting [3]) and > 4 µg/mL in assay [2] (setting [4]).

Turning to `CCCC#Cc1ccc(O)c2c1C[C@H]1C[C@H]3[C@H](N(C)C)C(O)=C(C(N)=O)C(=O)[C@@]3(O)C(O)=C1C2=O` [DK], the MIC in assay [1] (setting [3]) and in assay [2] (setting [4]) was > 4 µg/mL each time.

Consider `CN(C)C(=O)c1ccc(O)c2c1C[C@H]1C[C@H]3[C@H](N(C)C)C(O)=C(C(N)=O)C(=O)[C@@]3(O)C(O)=C1C2=O`, for which the MIC was < 4 µg/mL in assay [1] (setting [7]) and > 4 µg/mL in assay [2] (setting [8]).

With `CN1CCN(c2cc(N(C)C)c3c(c2O)C(=O)C2=C(O)[C@]4(O)C(=O)C(C(N)=O)=C(O)[C@@H](N(C)C)[C@@H]4C[C@@H]2C3)CC1`, the MIC in assay [1] (setting [7]) and in assay [2] (setting [8]) was > 4 µg/mL each time.

As to `CC(C)NCc1cc(N(C)C)c2c(c1O)C(=O)C1=C(O)[C@]3(O)C(=O)C(C(N)=O)=C(O)[C@@H](N(C)C)[C@@H]3C[C@@H]1C2`, the figures for the MIC in assay [1] (setting [7]) and in assay [2] (setting [8]) were < 4 µg/mL and > 4 µg/mL, respectively.

With `CN(C)[C@@H]1C(O)=C(C(N)=O)C(=O)[C@@]2(O)C(O)=C3C(=O)c4c(ccc(NC5CCNCC5)c4O)C[C@H]3C[C@@H]12` [LE], the MIC in assay [1] (setting [3]) and in assay [2] (setting [4]) was > 4 µg/mL throughout.

In the case of `CN(C)[C@@H]1C(O)=C(C(N)=O)C(=O)[C@@]2(O)C(O)=C3C(=O)c4c(ccc(N5CCOCC5)c4O)C[C@H]3C[C@@H]12`, the MIC in assay [1] (setting [7]) and in assay [2] (setting [8]) was > 4 µg/mL throughout.

For `CN(C)c1ccc(O)c2c1C[C@H]1C[C@H]3[C@H]([N+](C)(C)C)C(O)=C(C(N)=O)C(=O)[C@@]3(O)C(O)=C1C2=O`, the MIC in assay [1] (setting [7]) is < 4 µg/mL; in assay [2] (setting [8]), > 4 µg/mL.

With `CN(C)CC(=O)Nc1ccc2c(c1O)C(=O)C1=C(O)[C@]3(O)C(=O)C(C(N)=O)=C(O)[C@@H](N(C)C)[C@@H]3C[C@@H]1C2` [DW], the MIC in assay [1] (setting [3]) and in assay [2] (setting [4]) was < 4 µg/mL each time.

In the case of `CC(=O)Nc1ccc2c(c1O)C(=O)C1=C(O)[C@]3(O)C(=O)C(C(N)=O)=C(O)[C@@H](N(C)C)[C@@H]3C[C@@H]1C2`, the figures for the MIC in assay [1] (setting [7]) and in assay [2] (setting [8]) were < 4 µg/mL and > 4 µg/mL, respectively.

For the compound `Cc1noc(C)c1S(=O)(=O)Nc1ccc2c(c1O)C(=O)C1=C(O)[C@]3(O)C(=O)C(C(N)=O)=C(O)[C@@H](N(C)C)[C@@H]3C[C@@H]1C2` [IP], the results for the MIC in assay [1] (setting [3]) and in assay [2] (setting [4]) were < 4 µg/mL and > 4 µg/mL, respectively.

`CN(C)[C@@H]1C(O)=C(C(N)=O)C(=O)[C@@]2(O)C(O)=C3C(=O)c4c(O)ccc(C#CC(=O)O)c4C[C@H]3C[C@@H]12` [BH]: the MIC in assay [1] (setting [3]) and in assay [2] (setting [4]) was > 4 µg/mL each time.

For the compound `CN(C)CC(=O)Nc1ccc(C#Cc2ccc(O)c3c2C[C@H]2C[C@H]4[C@H](N(C)C)C(O)=C(C(N)=O)C(=O)[C@@]4(O)C(O)=C2C3=O)cc1` [BM], the MIC in assay [1] (setting [3]) and in assay [2] (setting [4]) was < 4 µg/mL in each case.

As for `CN(C)c1cc(CNc2ccccc2)c(O)c2c1C[C@H]1C[C@H]3[C@H](N(C)C)C(O)=C(C(N)=O)C(=O)[C@@]3(O)C(O)=C1C2=O`, the MIC was < 4 µg/mL in assay [1] (setting [7]) and > 4 µg/mL in assay [2] (setting [8]).

As for `CCc1cc(CN)c(O)c2c1C[C@H]1C[C@H]3[C@H](N(C)C)C(O)=C(C(N)=O)C(=O)[C@@]3(O)C(O)=C1C2=O` [CT], the results for the MIC in assay [1] (setting [3]) and in assay [2] (setting [4]) were > 4 µg/mL and < 4 µg/mL, respectively.

`CN(C)c1cc(NC(=O)Nc2ccccc2)c(O)c2c1C[C@H]1C[C@H]3C(N(C)C)C(O)=C(C(N)=O)C(=O)[C@@]3(O)C(O)=C1C2=O` (stereo partly shown): the MIC in assay [1] (setting [5]) and in assay [2] (setting [6]) was < 4 µg/mL throughout.

In the case of `CN(C)[C@@H]1C(O)=C(C(N)=O)C(=O)[C@@]2(O)C(O)=C3C(=O)c4c(O)c(CN)cc(Cl)c4C=C3C[C@@H]12`, the MIC in assay [1] (setting [7]) and in assay [2] (setting [8]) was > 4 µg/mL in each case.

In the case of `CN1CCN(Cc2ccc(-c3cc(N(C)C)c4c(c3O)C(=O)C3=C(O)[C@]5(O)C(=O)C(C(N)=O)=C(O)[C@@H](N(C)C)[C@@H]5C[C@@H]3C4)o2)CC1`, the MIC is < 4 µg/mL in assay [1] (setting [7]) and > 4 µg/mL in assay [2] (setting [8]).

As to `CN(C)c1cc(CN2CCCC2C(F)(F)F)c(O)c2c1C[C@H]1C[C@H]3[C@H](N(C)C)C(O)=C(C(N)=O)C(=O)[C@@]3(O)C(O)=C1C2=O` (stereo partly shown), the MIC in assay [1] (setting [7]) and in assay [2] (setting [8]) was < 4 µg/mL in each case.

Consider `CCOC(=O)/C=C/c1cc(N(C)C)c2c(c1O)C(=O)C1=C(O)[C@]3(O)C(=O)C(C(N)=O)=C(O)[C@@H](N(C)C)[C@@H]3C[C@@H]1C2`, for which the figures for the MIC in assay [1] (setting [7]) and in assay [2] (setting [8]) were < 4 µg/mL and > 4 µg/mL, respectively.

Consider `CN(C)c1cc(CNc2nc(-c3ccc(F)cc3)co2)c(O)c2c1C[C@H]1C[C@H]3[C@H](N(C)C)C(O)=C(C(N)=O)C(=O)[C@@]3(O)C(O)=C1C2=O`, for which the MIC in assay [1] (setting [7]) and in assay [2] (setting [8]) was > 4 µg/mL each time.

Consider `CN(C)[C@@H]1C(O)=C(C(N)=O)C(=O)[C@@]2(O)C(O)=C3C(=O)c4c(O)ccc(-c5ccncc5F)c4C[C@H]3C[C@@H]12`, for which the MIC in assay [1] (setting [7]) and in assay [2] (setting [8]) was < 4 µg/mL in each case.
